One experiment has as its system ATP. The experiment is described as follows: ATP concentration with TET. As to conditions: TET 5 μl/L + SCS (100 μmol/L). It is filed as biochemical. As to the method:
In present study, the effect of SCS on ATP and oxygen consumption was examined. The experiments of animal and livers were performed as previously described.

A further experiment has as its system YAC-1. The experiment is described as follows: NK cell activity of mice (^51Cr release), YAC-1 target cells. It is filed as in vivo. As to conditions: oral dose of 100 mg/kg.
The test system of experiment [1] is indomethacin induced small intestine mucosal damage. As to the kind of experiment: Indomethacin induced small intestine mucosal damage. It is filed as in vivo, rats. How it is done:
The experiment of animal was performed as previously described. Mucosal damage in gastrointestinal tract was induced ethanol or indomethacin administration. In ethanol-treated animals, after 24 hours of fasting, ethanol was given orally (70%, v/v, 10 ml/kg) by means of an oral gastric. Mucosal damage was assessed by measurement of areas with hemorrhagic lesion. In the indomethacin ulcer model, rats were refed for 1 hour after 24 hours of fasting. Thirty minutes later, indomethacin (15 mg/kg) was administered subcutaneously and rats were killed 24 hours later. Mucosal lesions were again measured along the greatest diameter. […] SCS administration was repeated again 6 hours after indomethacin injection.

Marks after values point to notes of the source that are not given here.

With `COc1cc2c(c(OC)c1OC)-c1c(cc(OC)c(OC)c1OC)C[C@](C)(O)[C@@H](C)C2` [SCS, Schisandrin], the ATP in the experiment with ATP is 35.8 ± 4.0* 100 μmol/L. Besides, the “% Specific lysis (mean ± SEM) YAC-1” value in the experiment with YAC-1 (effector/target 50:1) stood at 45.0 ± 3.6 %; in the experiment on YAC-1 (effector/target 100:1) it was 64.0 ± 7.1%. Also, the “Lesion area (mm^2) Small intestine” value in experiment [1] (SCS 10 mg/kg) is 350 ± 38* mm^2; in experiment [1] (SCS 25 mg/kg), 321 ± 33** mm^2; in experiment [1] (SCS 50 mg/kg) it was 295 ± 30** mm^2.
